These results are taken from patent publication US11077167B2, “Agent for promoting skeletal muscle injury repair” (Osaka University, priority 2017, dated 2021).

In test [1] the test system is muscle injury model rats (incised masseter muscles on both sides). Put plainly: Histological staining of masseter muscles at postoperative week 1, Example 1. As to conditions: P<0.05, t-test. Type of test: in vivo, Jcl:SD rats. Here is the method:
Incisions were made in masseter muscles on both sides in Jcl:SD rats (10 weeks old). Immediately after muscle incision, 1 mL each of the SV peptide (20 ng/mL) was intramuscularly administered into several sites surrounding the cut surfaces. The incision on each side was made along a straight line connecting the lateral angle of the eye and the mandibular angle, extending in depth from the fascia on the skin side to the lateral periosteum on the mandibular ramus. The cut surfaces were subjected to electrocoagulation with an electric scalpel for the arrest of bleeding (see FIG. 1).
This experiment was performed on rats subjected to incision of masseter muscles on both sides and subsequent administration of the SV peptide into the incised left masseter muscle without administration into the incised right masseter muscle (control). Each rat was euthanized at postoperative week 1, and the masseter muscles on both sides were excised. Histological sections were prepared by the usual method and subjected to various types of staining. The number of immature muscle fibers with central nuclei, which were muscle fibers involved in muscle repair, and the number of blood vessels were counted on HE-staining specimens. The masseter muscle was divided into upper and lower halves in the coronal plane, and 2 slices each of the upper and lower halves were used for counting. Counting was performed in 5 fields of view in each slice. The area of granulation tissue formed on the cut surfaces was measured on sirius red-staining specimens (type I and type III collagens were stained) using an image-analysis software. The sections were immunostained for myogenin, a marker for myotube cells, and the number of myogenin-positive cells was counted using an image-analysis software.

The test system of test [2] is Human skeletal muscle myoblasts (HSMMs). The test is described as follows: Cell proliferative capacity (WST-1 assay). Type of test: cell-based. The settings on record: SV peptide 20 ng/mL. The protocol:
Human skeletal muscle myoblasts (HSMMs) were purchased from Lonza and used. The medium used for HSMM culture was the supplier's recommended medium (Skeletal Muscle Growth Media-2 supplemented with SingleQuots Kit).
Human skeletal muscle satellite cells and human skeletal muscle myoblasts were separately seeded at 1.0×10^4 cells/mL in each well of non-treated polystyrene 96-well cell culture plates (Falcon). The SV peptide (20 ng/mL, SV group), the random SV (20 ng/mL, random SV group), or PBS (PBS group) was added to the medium. The plates were cultured at 37° C. in a 5% CO2 atmosphere. After 0, 12, 24, 48, and 72 hours, cell proliferation was assessed using Premix WST-1 Cell Proliferation Assay System (Takara Bio, Japan).
On the technique in general: Tetrazolium assays rely on reduction of a dye to a coloured formazan, in cell work by metabolically active cells.

Test [3] relates to muscle injury model rats (incised masseter muscles on both sides). Put plainly: In vivo skeletal muscle forming capability (HE, MyoD, myogenin staining at postoperative week 1), Example 4. Set-up: species or system Jcl:SD rats. The protocol:
In the same manner as in Example 2, incisions were made in masseter muscles on both sides in Jcl:SD rats (10 weeks old) under anesthesia, and immediately after that, the rats were subjected to administration of 1 mL of the SV peptide (20 ng/mL) or 1 mL of PBS into the incised left masseter muscle without administration into the incised right masseter muscle. The two groups were called “SV group” and “PBS group”. Each rat was euthanized at postoperative week 1, and the masseter muscles on both sides were excised. The masseter muscles were embedded in paraffin and transversally sliced into histological sections by the usual method. The sections were subjected to HE staining, immunostaining with an anti-MyoD antibody and immunostaining with an anti-myogenin antibody. The anti-MyoD antibody used was an anti-mouse MyoD antibody (Abcam), and the anti-myogenin antibody used was an anti-mouse myogenin antibody (Abcam). A biotin-labeled anti-rabbit IgG antibody (DAKO) was used as a secondary antibody.
The area of granulation tissue formed on the cut surfaces was measured on the HE-staining specimens using the image-analysis software ImageJ (NIH, USA). The granulation tissue area ratios in the SV group and the PBS group were separately calculated using the following formula. […]
Images of the MyoD-immunostained specimens were taken with a digital camera mounted on a microscope, and the number of MyoD-positive nuclei in the muscle tissue area extending 2.5 mm on each side of the muscle incision site was counted. The MyoD-positive ratios in the SV group and the PBS group were separately calculated using the following formula. […]
Images of the myogenin-immunostained specimens were taken with a digital camera mounted on a microscope, and the number of myogenin-positive nuclei in the muscle tissue area extending 2.5 mm on each side of the muscle incision site was counted. The myogenin-positive ratios in the SV group and the PBS group were separately calculated using the following formula. […]

Test [4] relates to mesenchymal cell. The settings on record: Patent Literature 2; cited from earlier work.

SVVYGLR [SV peptide]: the “number of muscle fibers with central nuclei” value in test [1] (HE staining, SV peptide side vs control side) was “significantly larger on the SV peptide side than that on the control side”. In addition, the “number of blood vessels per field of view” value in test [1] (HE staining, SV peptide side vs non-administration control side) is reported as “significantly larger on the SV peptide side than that on the control side”. In test [1] (myogenin immunostaining, SV peptide side vs control side), the “number of myogenin-positive nuclei per field of view” value is given as “significantly larger on the SV peptide side than that on the control side”. Besides, the “area of granulation tissue formed on cut surfaces” value in test [1] (sirius red staining, SV peptide side vs control side) is “significantly smaller on the SV peptide side than that on the control side”. Besides, the cell proliferative capacity entry is “significantly increased after 24-hour treatment with the SV peptide and then reached a plateau” in test [2] (time course within SV group); “significantly higher at 12 hours post-treatment and remained significantly higher thereafter than that in the PBS group or the random SV group” in test [2] (vs PBS group or random SV group, 12 hours and thereafter). Besides, in test [3] (HE staining), the “granulation tissue area ratio (administration side / non-administration side)” value was “significant reduction in granulation tissue formation”. In addition, in test [3] (MyoD immunostaining, SV group vs PBS group), the “MyoD-positive ratio (administration side / non-administration side)” value is given as “significant increase of MyoD-positive cells as compared with the PBS group”. The “myogenin-positive ratio (administration side / non-administration side)” value in test [3] (myogenin immunostaining, SV group vs PBS group) is reported as “significant increase of myogenin-positive cells as compared with the PBS group”. In test [4], the mesenchymal cell proliferation entry is “promotes mesenchymal cell proliferation”.
